# Where a name gives a salt, the structure may show the parent alone. Read-outs that look alike come from different tables or passages of the source.
# Columns and labels:
# [1] = test system: HIV-1_91US005; details: HIV-1, human PBMC, RT assay, 7 days; 95% CI in brackets
# [2] = test system: HIV-1_91US005; details: HIV-1, human PBMC, p24 ELISA; 95% CI in brackets
# [3] = test system: human PBMCs; assay: Cytotoxicity in PBMC (MTS)
# [4] = test system: SARS-CoV-2; assay: microbe, parasite or virus in culture; assay type: cell-based
# [5] = in vitro; details: African green monkey
# [6] = test system: HCMV AD169-GFP; assay: microbe, parasite or virus in culture; assay type: cell-based, human cytomegalovirus; details: Human betaherpesvirus 5, AD169, 168 h
# [7] = test system: primary human foreskin fibroblasts (HFFs); parameters: method as in ref 28 = [28]; details: HFF; reported previously; cited from earlier work
# [8] = test system: SARS-CoV-2; assay: microbe, parasite or virus in culture; assay type: cell-based; details: for reduction in viral yield: Vero 76, 3 days
# [9] = test system: SARS-CoV-2; assay: microbe, parasite or virus in culture; assay type: cell-based; remark: listed apart in the source
# [10] = in vitro; assay type: cell-based; details: African green monkey
# [11] = in vitro; assay type: cell-based; details: human
# [12] = test system: SARS-CoV-2; assay type: cell-based
# [13] = test system: Vero cells; details: African green monkey
# [14] = in vitro; details: African green monkey; remark: listed apart in the source
# [15] = target: T1, N-terminally truncated recombinant hDHODH enzyme (Homo sapiens, UniProt Q02127); assay: In vitro inhibition of human DHODH; assay type: biochemical
# T1 construct: using an N-terminally truncated recombinant hDHODH enzyme as described
# T1 sequence (Q02127 29-395 limits assumed): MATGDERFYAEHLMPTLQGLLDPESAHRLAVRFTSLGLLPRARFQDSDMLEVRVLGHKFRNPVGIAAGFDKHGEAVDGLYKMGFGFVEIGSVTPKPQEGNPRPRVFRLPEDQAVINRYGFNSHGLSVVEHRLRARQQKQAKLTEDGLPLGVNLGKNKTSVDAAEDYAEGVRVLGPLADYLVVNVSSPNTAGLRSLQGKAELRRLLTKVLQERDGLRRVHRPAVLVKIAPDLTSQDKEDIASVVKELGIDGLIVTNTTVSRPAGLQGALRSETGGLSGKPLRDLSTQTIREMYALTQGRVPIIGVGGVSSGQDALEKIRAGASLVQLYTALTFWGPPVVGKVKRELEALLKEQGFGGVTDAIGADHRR
# [16] = Neutral Red assay (NRA) cytotoxicity; details: African green monkey
# [17] = test system: HCV subgenomic replicon of genotype 1b; assay: HCV subgenomic replicon Luc reporter assay in Huh7; assay type: cell-based; details: Hepatitis C virus, Huh-7, 24 h
# [18] = test system: primary human foreskin fibroblasts (HFFs)
# [19] = test system: human PBMCs; details: 7 days, 100 µM
# [20] = test system: MPO in colonic tissue; parameters: method as in ref 57 = [57]; details: murine TNBS-induced colitis model; cited from earlier work
# [21] = test system: inflammation in the lung; parameters: method as in ref 57 = [57]; details: mouse model of systemic lupus erythematosus; cited from earlier work
# [22] = in vitro; details: human
# [23] = in vitro; details: human; remark: listed apart in the source
# [24] = test system: HIV-1_91US005; assay: microbe, parasite or virus in culture; details: Human immunodeficiency virus 1, PBMC, 168 h
# [25] = test system: HIV-1_91US005; assay: microbe, parasite or virus in culture; details: Human immunodeficiency virus 1, PBMC
# [26] = Cytotoxicity in Huh7 replicon cells (CytoTox-1 cell proliferation assay); details: human
# [27] = test system: Huh7 human hepatoma cell line; assay: as above; details: highest concentration (30 µM), Huh7
# [28] = Severe acute respiratory syndrome coronavirus 2, RT-qPCR, Vero cells, read-out: Anti-SARS-CoV-2 drug efficacy on Vero cells: EC50
# [29] = Severe acute respiratory syndrome coronavirus 2, Caco-2
smiles,measurement,setting,value
"Cc1cn([C@H]2C[C@H](N=[N+]=[N-])[C@@H](CO)O2)c(=O)[nH]c1=O [AZT, azidothymidine/zidovudine]",EC50,[1],0.00038 µM
same,EC50,[2],0.00027 µM
same,CC50,[3],> 1 µM
"CCN(CC)CCCC(C)Nc1ccnc2cc(Cl)ccc12 (stereo not drawn) [CQ, chloroquine, reference compound]",EC50,[4]; [28],2.7 ± 0.9 µM
same,CC50,[5],> 20 µM
"Nc1nc(O)c2ncn(COC(CO)CO)c2n1 [GCV, ganciclovir, reference compound]",EC50,[6],1.69 ± 0.8 µM
same,CC50,[7],> 15 µM
"COc1cccc(-c2ccc(NC(=O)C3=C(C(=O)O)CCC3)c(F)c2)c1 [IMU-838, calcium salt of vidofludimus]",EC50,"[4]; Severe acute respiratory syndrome coronavirus 2, Vero 76, 72 h, read-out: EC50, replicate 3 RT-qPCR",10 ± 9 µM
same,EC50,"[4]; Severe acute respiratory syndrome coronavirus 2, Vero, 48 h, read-out: EC50, replicate 1 RT-qPCR",6.8 µM
same,EC50,"[4]; Severe acute respiratory syndrome coronavirus 2, Vero, 72 h, read-out: EC50, replicate 2 RT-qPCR",6 µM
same,EC50,"[4]; Severe acute respiratory syndrome coronavirus 2, Vero, read-out: Mean EC50 of replicates 1-3",7.6 ± 5.8 µM
same,EC90,"[8]; Severe acute respiratory syndrome coronavirus 2, Vero 76, 72 h",6.2 ± 1.9 µM
same,reduction in viral yield,[8]; drug alone at 10 µM,~ 1.7 fold log unit
same,reduction of viral plaques,"[9]; 30 µM, CaCo-2, 72 h p.i.",~ 1.8 log unit
same,EC50,[9]; [29],7.5 to 15 µM
same,EC90,[9]; [29],15 to 30 µM
same,CC90,[10],> 100 µM
same,CC50,[11],> 60 µM
same,CC90,[11],> 60 µM
same,inhibition of viral RNA production (mAb-dsRNA),[12],concentration-dependent IMU-838-mediated inhibition
same,inhibition of viral spike protein production (mAb-S),[12],concentration-dependent IMU-838-mediated inhibition
same,CC50,[13],> 100 µM
same,"viability at 3 days, 100 µM",[14],95%
same,CC50,[14]; CC50,88.1 ± 3.7 µM
COC(=O)c1c(-c2c(F)cccc2Cl)noc1-c1cnn(-c2cccc(Cl)c2)c1C(F)(F)F [IMU-CO3],IC50,[15],0.041 µM
same,EC50,[4]; [28],15.5 ± 4.6 µM
same,CC50 at 3 days,[14]; CC50 values on Vero cells,> 100 µM
"CCC(CC)COC(=O)[C@H](C)N[P@](=O)(OC[C@H]1O[C@@](C#N)(c2ccc3c(N)ncnn23)[C@H](O)[C@@H]1O)Oc1ccccc1 [RDV, remdesivir]",EC50,[4]; [28],1.7 ± 1 µM
same,reduction in viral yield,[8]; drug alone at 5 µM,~ 3.8 fold log unit
same,reduction in viral yield,[8]; drug alone at 10 µM,> 4.0 fold log unit
same,CC50,[5],> 20 µM
same,CC50,[16],> 100 µM
"C/C(O)=C(\C#N)C(=O)Nc1ccc(C(F)(F)F)cc1 [TFNM, teriflunomide]",EC90,"[8]; Severe acute respiratory syndrome coronavirus 2, 72 h, Vero 76, USA_WA1/2020, MOI 0.002, VYR, 3 days p.i., read-out: EC90",14 µM
"COc1cccc(-c2ccc(NC(=O)C3=C(C(=O)O)CCC3)c(F)c2)c1 [Vido, vidofludimus]",EC50,[6],7.4 ± 0.1 µM
same,EC50,[17],5.9 µM
same,cytotoxicity,[18],absence of detectable cytotoxicity
same,reduction in cell viability,[19],46.8%
same,levels of MPO in colonic tissue,[20],reduced the levels of MPO in colonic tissue
same,inflammation in the lung,[21],decreased inflammation in the lung
same,CC50,[22],> 100 µM
same,CC50 at 7 days,[23],> 100 µM
same,EC50,[24],2.1 µM
same,EC50,[25],1.3 µM
same,CC50 at 24 h,[26],> 30 µM
same,reduction in cell viability,[27],34%

# Reference: publication PMC7762174 (Viruses, 2020)
